Data published in patent US10626081B2, “Farnesoid X receptor agonists and uses thereof” (Metacrine, Inc., priority 2015, dated 2020).

target: T1, FXR (Homo sapiens, UniProt Q96RI1); test: In Vitro FXR Assay (PGL3): luciferase reporter in transfected CV-1 cells; assay type: cell-based; conditions: CV-1 cells transfected with hFXR, hRXR, PGL3-ECRE*6-luc; 18 h incubation; luminescence
T1 construct: expressed in transfected cells; host or cells: CV-1 cells
T1 sequence (Q96RI1 1-486): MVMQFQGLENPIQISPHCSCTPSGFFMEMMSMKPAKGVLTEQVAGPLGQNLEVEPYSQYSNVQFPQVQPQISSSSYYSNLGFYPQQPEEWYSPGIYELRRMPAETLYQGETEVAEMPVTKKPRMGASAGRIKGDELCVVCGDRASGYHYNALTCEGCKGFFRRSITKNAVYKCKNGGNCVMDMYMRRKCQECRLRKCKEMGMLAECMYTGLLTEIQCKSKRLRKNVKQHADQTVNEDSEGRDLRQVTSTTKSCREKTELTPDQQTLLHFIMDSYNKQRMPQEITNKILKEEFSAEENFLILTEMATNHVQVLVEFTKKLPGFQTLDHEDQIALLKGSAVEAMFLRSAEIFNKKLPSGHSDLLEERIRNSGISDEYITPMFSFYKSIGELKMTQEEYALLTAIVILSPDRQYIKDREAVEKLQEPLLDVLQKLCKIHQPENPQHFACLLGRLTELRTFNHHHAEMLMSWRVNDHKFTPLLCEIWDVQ
T1 sequence (P19793 1-462 partner): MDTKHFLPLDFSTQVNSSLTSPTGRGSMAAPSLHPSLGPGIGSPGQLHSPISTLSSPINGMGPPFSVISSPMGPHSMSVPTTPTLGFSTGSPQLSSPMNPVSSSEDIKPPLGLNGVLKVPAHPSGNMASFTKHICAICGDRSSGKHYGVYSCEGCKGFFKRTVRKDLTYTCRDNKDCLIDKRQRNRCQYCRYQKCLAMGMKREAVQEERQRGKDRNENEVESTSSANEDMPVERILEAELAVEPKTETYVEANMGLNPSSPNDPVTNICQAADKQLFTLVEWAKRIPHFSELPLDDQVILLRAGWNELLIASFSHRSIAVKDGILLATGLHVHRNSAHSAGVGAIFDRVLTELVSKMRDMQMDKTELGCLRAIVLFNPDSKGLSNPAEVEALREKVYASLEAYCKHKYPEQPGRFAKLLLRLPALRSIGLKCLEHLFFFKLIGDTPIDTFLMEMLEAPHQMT
Method: Example B-1: In Vitro FXR Assay (PGL3)
CV-1 cells were seeded at a density of 2,000,000 cells in a T175 flask with DMEM+10% charcoal double-stripped FBS and incubated at 37° C. in a 5% CO2 for 18 h (O/N).
After 18 h of incubation, the medium in the T175 flask was changed with fresh DMEM+10% charcoal super-stripped serum.
To prepare the transfection reaction mixture, the transfection reagent (X-tremeGENE HP from Roche, Cat #06 366 236 001) was added in to a 1.5 mL microcentrifuge tube labelled “A” at a ratio of 1:3 (DNA in transfection reagent in μL). OptiMEM medium (Life Technologies, Cat #31985-062) was added accordingly to provide a total volume of 1 mL. The transfection reaction mixture was then briefly vortexed and incubated at room temperature for 5 minutes.
In a separate 1.5 mL microcentrifuge tube labelled “B”, 100 μL OptiMEM and plasmids XPD90Gal pCMXhFXRfl, pCMXhRXRfl+PGL3-ECRE*6-luc+CMX-YFP in the ratio 2 μg:2 μg:18 μg:3 μg were added. This microcentrifuge tube “B” was then briefly vortexed and incubated at room temperature for 5 minutes.
The total volume in tube labelled “A” was then transferred in to tube labelled “B.” The mixture was then briefly vortexed and the transfection:DNA complex was then incubated for about 15-20 minutes at room temperature.
Following incubation, the transfection reagent/DNA mixture complex was then added to cells in the T175 flask and the cells were incubated at […] (O/N) at 37° C. in 5% CO2.
In a 96 well plate, a half logarithmic serial dilution was prepared. OptiMEM was used as the diluent. Using any of one of the compounds described herein, a compound stock solution of 10 mM was prepared. An initial 1:100 dilution was made into the first well for a final concentration of 100 μM. The final concentrations in the 96-well plate was prepared by using a multichannel pipette to transfer 5 μL of the diluted compound to 384-well plate in quadruplicate.
Cells in T175 flask were trypsinized and cells were resuspended in 40 mL phenol red free DMEM+10% charcoal super-stripped FBS. Typically, one T175 flask was sufficient to seed two 384 well plates. CV-1 cells were seeded at 45 μL cell suspension/well using a multi-channel pipet or a 384 multidrop dispenser. The cells were then incubated for 18 hrs, overnight.
After removing the plates from the incubator, the medium was flicked out of plate and 384 well plate was turned upside down onto paper towel. The remaining medium was gently tapped out. 15 μL lysis buffer was then added to each well using a multichannel pipet or a 384 well multi-drop dispenser. After incubation for 10 minutes at room temperature on shaker, 30 μL Luciferase buffer was added to each well. Luminescence counts were taken immediately using the Perkin Elmer Envision.
The ability of the compounds disclosed herein to […] FXR activity was quantified and the respective EC50 value was determined. Fex=fexaramine.

Cmpd/Fex (ratio of the EC50 for the test compound relative to the EC50 of the Fexaramine control), + (‘+’ means Cmpd/Fex > 100):
COC(=O)/C=C/c1cccc(N(Cc2ccc(-c3ccccn3)cc2)C(=O)C2CCCCC2)c1 [compound 65, (E)-Methyl 3-(3-(N-(4-(pyridin-2-yl)benzyl)cyclohexanecarboxamido)phenyl) acrylate]
COC(=O)/C=C/c1cccc(N(Cc2ccc(N3CCN(C)CC3)cc2)C(=O)C2CCCCC2)c1 [compound 76, (E)-Methyl 3-(3-(N-(4-(4-methylpiperazin-1-yl)benzyl)cyclohexanecarboxamido)phenyl) acrylate]
COC(=O)/C=C/c1cccc(N(Cc2ccc(N3CCNCC3)cc2)C(=O)C2CCCCC2)c1 [compound 79, (E)-Methyl 3-(3-(N-(4-(piperazin-1-yl)benzyl)cyclohexanecarboxamido)phenyl) acrylate]

Cmpd/Fex (ratio of the EC50 for the test compound relative to the EC50 of the Fexaramine control), +++ (‘+++’ means Cmpd/Fex < 10):
COC(=O)/C=C/c1cc(C)cc(N(Cc2ccc(-c3ccc(N(C)C)cc3)cc2)C(=O)C2CCCCC2)c1 [compound 39, (E)-Methyl 3-(3-(N-((4′-(dimethylamino)-[1,1′-biphenyl]-4-yl)methyl)cyclohexanecarboxamido)-5-methylphenyl)acrylate]

target: T1, FXR; test: In Vitro FXR Assay (TK): TK-ECRE-luc reporter in transfected CV-1 cells; assay type: cell-based; conditions: CV-1 cells transfected with hFXR, hRXR, 18 h incubation, luminescence
Summary of the method: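 Luciferase read-out from lysed CV-1 cells exposed 18 h to DMSO-diluted compounds. Cells had been transfected overnight with expression plasmids for hFXR and hRXR plus TK-ECRE-luc reporter and pCMX-YFP, grown in charcoal-stripped serum at 37 °C, 5% CO2.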

EC50, 1000 to 10000 nM:
COC(=O)/C=C/c1cccc(N(Cc2ccc(-c3ccccn3)cc2)C(=O)C2CCCCC2)c1 [compound 65, (E)-Methyl 3-(3-(N-(4-(pyridin-2-yl)benzyl)cyclohexanecarboxamido)phenyl) acrylate]
COC(=O)/C=C/c1cc(C)cc(N(Cc2ccc(-c3ccc(N(C)C)cc3)cc2)C(=O)C2CCCCC2)c1 [compound 39, (E)-Methyl 3-(3-(N-((4′-(dimethylamino)-[1,1′-biphenyl]-4-yl)methyl)cyclohexanecarboxamido)-5-methylphenyl)acrylate]
COC(=O)/C=C/c1cccc(N(Cc2ccc(-c3ccc4ncoc4c3)cc2)C(=O)C2CCCCC2)c1 [75.12, (E)-Methyl 3-(3-(N-(4-(benzo[d]oxazol-6-yl)benzyl)cyclohexanecarboxamido)phenyl) acrylate]
COC(=O)/C=C/c1cccc(N(Cc2ccc(-c3ccc(N(C)C)cc3)cc2)C(=O)C2CCNC(=O)C2)c1 (stereo not shown) [13.18, (E)-Methyl 3-(3-(N-((4′-(dimethylamino)-[1,1′-biphenyl]-4-yl)methyl)-2-oxopiperidine-4-carboxamido)phenyl)acrylate]
COC(=O)/C=C/c1cccc(N(Cc2ccc(-c3ccc(N(C)C)nn3)cc2)C(=O)C2CCCCC2)c1 [75.5, (E)-Methyl 3-(3-(N-(4-(6-(dimethylamino)pyridazin-3-yl)benzyl)cyclohexanecarboxamido)phenyl) acrylate]
COC(=O)/C=C/c1cccc(N(Cc2ccc(-c3ccc(N(C)C)cc3)cc2)C(=O)c2ccc(F)cc2)c1 [13.2, (E)-Methyl 3-(3-(N-((4′-(dimethylamino)-[1,1′-biphenyl]-4-yl)methyl)-4-fluorobenzamido)phenyl)acrylate]
COC(=O)/C=C/c1cccc(N(Cc2ccc(-c3ccc(N4CCC4)cc3)cc2)C(=O)C2CCCCC2)c1 [75.2, (E)-Methyl 3-(3-(N-((4′-(azetidin-1-yl)-[1,1′-biphenyl]-4-yl)methyl)cyclohexanecarboxamido)phenyl) acrylate]
COC(=O)/C=C/c1cccc(N(Cc2ccc(-c3ccc4sncc4c3)cc2)C(=O)C2CCCCC2)c1 [75.17, (E)-Methyl 3-(3-(N-(4-(benzo[d]isothiazol-5-yl)benzyl)cyclohexanecarboxamido)phenyl) acrylate]
COC(=O)/C=C/c1cccc(N(Cc2ccc(-c3ccc(N(C)C)cc3)cc2)C(=O)[C@@H]2CCCC[C@@H]2O)c1 (relative stereo) [13.26, cis-(E)-Methyl 3-(3-(N-((4′-(dimethylamino)-[1,1′-biphenyl]-4-yl)methyl)-2-hydroxycyclohexanecarboxamido)phenyl)acrylate]
COC(=O)/C=C/c1cccc(N(Cc2ccc(-c3cccc(CO)c3)cc2)C(=O)C2CCCCC2)c1 [62.6, (E)-Methyl 3-(3-(N-((3′-(hydroxymethyl)-[1,1′-biphenyl]-4-yl)methyl)cyclohexanecarboxamido)phenyl) acrylate]
COC(=O)/C=C/c1cc(N(Cc2ccc(-c3ccc(N(C)C)cc3)cc2)C(=O)C2CCCCC2)cc(C(F)(F)F)c1 [86.11, (E)-Methyl 3-(3-(N-((4′-(dimethylamino)-[1,1′-biphenyl]-4-yl)methyl)cyclohexanecarboxamido)-5-(trifluoromethyl)phenyl)acrylate]

EC50, ≤ 1000 nM:
COC(=O)/C=C/c1cccc(N(Cc2ccc(-c3ccc(N(C)C)cc3)cc2)C(=O)[C@H]2CC[C@H](NS(C)(=O)=O)CC2)c1 [98.2, trans-(E)-Methyl 3-(3-(N-((4′-(dimethylamino)-[1,1′-biphenyl]-4-yl)methyl)-4-(methylsulfonamido)cyclohexane-carboxamido)phenyl)acrylate]
COC(=O)/C=C/c1cccc(N(Cc2ccc(-c3ccc4c(c3)OCO4)cc2)C(=O)C2CCCCC2)c1 [62.9, (E)-Methyl 3-(3-(N-(4-(benzo[d][1,3]dioxol-5-yl)benzyl)cyclohexanecarboxamido)phenyl) acrylate]
COC(=O)/C=C/c1cccc(N(Cc2ccc(-c3cnc(N(C)C)nc3)cc2)C(=O)C2CCCCC2)c1 [75.3, (E)-Methyl 3-(3-(N-(4-(2-(dimethylamino)pyrimidin-5-yl)benzyl)cyclohexanecarboxamido)phenyl) acrylate]
COC(=O)/C=C/c1cccc(N(Cc2ccc(-c3ccc(OC)c(Cl)c3)cc2)C(=O)C2CCCCC2)c1 [62.10, (E)-Methyl 3-(3-(N-((3′-chloro-4′-methoxy-[1,1′-biphenyl]-4-yl)methyl)cyclohexanecarboxamido)phenyl) acrylate]
COC(=O)/C=C/c1cccc(N(Cc2ccc(-c3ccc(N(C)C)cc3)cc2)C(=O)C(C)(C)CCl)c1 [13.24, (E)-Methyl 3-(3-(3-chloro-N-((4′-(dimethylamino)-[1,1′-biphenyl]-4-yl)methyl)-2,2-dimethylpropanamido)phenyl)acrylate]
COC(=O)/C=C/c1cc(F)cc(N(Cc2ccc(-c3ccc(N(C)C)cc3)cc2)C(=O)C2CCCCC2)c1 [13.4, (E)-Methyl 3-(3-(N-((4′-(dimethylamino)-[1,1′-biphenyl]-4-yl)methyl)cyclohexanecarboxamido)-5-fluorophenyl)acrylate]

EC50, > 10000 nM:
COC(=O)/C=C/c1cccc(N(Cc2ccc(-c3ccc(S(C)(=O)=O)c(Cl)c3)cc2)C(=O)C2CCCCC2)c1 [75.10, (E)-Methyl 3-(3-(N-((3′-chloro-4′-(methylsulfonyl)-[1,1′-biphenyl]-4-yl)methyl)cyclohexanecarboxamido)phenyl) acrylate]
